Values joined by “and” are separate entries in the source; they are usually repeats but may differ in a detail not shown here. Equal values may be shown once.
Columns and labels:
[1] = healthy volunteer population (Evans 2013); cited from earlier work
[2] = tested on: fetal development, male fertility; assay: Preclinical reproductive toxicity studies; format: in vivo
[3] = Plasma concentration of PRN1008, Part A; format: in vivo; conditions: human, oral, read-out: plasma levels at 12 hours post-dose (trough point)
[4] = tested on: rats with collagen-induced arthritis; conditions: rats with collagen-induced arthritis (Hill R et al., 2015); cited from earlier work
[5] = Relative bioavailability study, tablet vs liquid formulation
[6] = tested on: patients with pemphigus; assay: Safety (adverse events), Part B
Method: (§1) Specific assessments to evaluate treatment safety included the following: (1) the frequency and type of AEs; (2) clinical laboratory testing; (3) SNAQ appetite questionnaire; and (4) vital signs. Typically, patients remained under observation in the clinic for 2 hours after administration of the first PRN1008 dose and until the PK sample was drawn.
(§2) The primary safety outcome measures were incidence of treatment-emergent AEs (TEAEs), including clinically significant changes in physical examination, laboratory tests, and vital signs.
(§3) Investigators were instructed to report in detail all AEs encountered during the clinical study in the source documents, from the date of participant consent throughout the follow-up visit. Investigators were also instructed to report pre-existing conditions that worsen during a study were instructed as AEs, with the exception of the disease under study as it was expected that there may be variation in pemphigus disease activity intended to be captured in other measurements.
(§4) Investigators were instructed to grade AEs based on the NCI CTCAE, Version 4.0 or higher.
(§5) Investigators were instructed to use their knowledge of the study participant, the circumstances surrounding the event, and an evaluation of any potential alternative causes to determine whether or not an AE is considered to be related to the study drug, indicating “yes” or “no” accordingly.

[7] = tested on: patients with pemphigus (PV and PF); assay: Interim data as of Jan. 18, 2018 in patients with pemphigus (PV and PF); format: in vivo, human
Method: As of Jan. 18, 2018, PRN1008 had been administered to 21 patients with pemphigus (pemphigus vulgaris (PV) and pemphigus foliaceus (PF)), 18 of whom had 4 or more weeks of treatment with […]1008 was well-tolerated in this study. […] Three patients achieved CDA on no CS. Two patients required high-dose CS temporarily during PRN1008 treatment due to worsening of disease activity. Four patients achieved complete remission (CR) on 1 to 20 mg/day of CS, three achieved CR at Week 13 (25%), and one achieved CR at Week 21.

[8] = tested on: canines with naturally occurring PF; conditions: canines with naturally occurring PF (Murrell DF, 2019); cited from earlier work
[9] = tested on: patients with newly diagnosed or relapsing pemphigus; assay: Phase 2 study Part A (400 mg BID up to 600 mg BID, 12-week treatment): clinical activity; format: in vivo, human; conditions: for patients who achieved complete remission (CR): n = 24
[10] = tested on: patients with newly diagnosed or relapsing pemphigus; assay: Phase 2 study Part B (400 mg QD up to 600 mg BID, 24-week treatment): clinical activity; conditions: for Median PDAI: 12 at day 1
Method: Generally, clinical response is shown by some improvement seen in first 2 weeks with CDA achieved by the Week 5 visit. […] Typically, clinical response and tolerability were assessed at each visit.
PDAI and ABSIS assessments were employed to monitor pemphigus disease activity. […] Photography was used to document skin disease changes where appropriate.
Part B was a multicenter, open-label, single-arm Phase 2 study (NCT02704429) designed to further evaluate the efficacy and safety of PRN1008 in pemphigus patients. Patients received an initial dose of 400 mg PRN1008 once a day (QD) with possible dose adjustment up to 600 mg BID at investigator discretion. Treatment duration was 24 weeks with an additional 4 weeks of follow-up off treatment.

[11] = tested on: anti-dsg 1 and anti-dsg 3 autoantibody levels; assay: Anti-dsg autoantibody levels by ELISA, Part A; conditions: including patients with high autoantibody levels at baseline
Excerpt: PK outcome measures investigated included plasma concentrations of PRN1008 at approximately the time of maximum concentration on Day 1 and at various subsequent times during outpatient dosing.

[12] = tested on: patients with pemphigus (Safety Population); assay: Safety (treatment-emergent adverse events), Part A
Method: as §1, §2, §3, §4, §5

[13] = tested on: healthy volunteers; conditions: Phase 1, healthy volunteers (Smith PF 2017); cited from earlier work

## C=CC(=O)Nc1cccc(Nc2nc(Nc3ccc(OCCOC)cc3)ncc2F)c1 [CC-292]
[1]
  tolerability: well tolerated

## CC(C)(C=C(C#N)C(=O)N1CCC[C@@H](n2nc(-c3ccc(Oc4ccccc4)cc3F)c3c(N)ncnc32)C1)N1CCN(C2COC2)CC1 [PRN1008, (R)-2-[3-[4-amino-3-(2-fluoro-4-phenoxy-phenyl)pyrazolo[3,4-d]pyrimidin-1-yl]piperidine-1-carbonyl]-4-methyl-4-[4-(oxetan-3-yl)piperazin-1-yl]pent-2-enenitrile]
[2]
  reproductive toxicity: not expected to harm fetal development or male fertility
[3]
  concentration at 12 h: 9.5 ng/mL
[4]
  disease symptoms and outcomes: improved disease symptoms and outcomes
[5]
  exposure of the tablet relative to the equal dose of the liquid formulation: ~ 70%
[6]
  tolerability: well tolerated
[6]; all treatment-related AEs
  severity of treatment-related AEs: mild-moderate and transient
[6]; mild to moderate (grade 1 and 2)
  Treatment-related AEs with an incidence greater than 10%: nausea, abdominal distension, infection, and oropharyngeal pain
[6]; of 15, grade 1 nasopharyngitis, grade 1 tracheitis
  patients who reported a mild related infection: 2 patients
[7]
  patients who achieved CDA on no CS: Three
  patients who achieved CR at Week 21: one
  patients who achieved complete remission (CR) on 1 to 20 mg/day of CS: Four
[7]; 11 of 18 patients with efficacy data
  patients who met the primary endpoint CDA on CS <= 0.5 mg/kg/day by the Week 5 visit: 61%
[7]; 21 patients with pemphigus
  tolerability: well-tolerated
[7]; during PRN1008 treatment
  patients who required high-dose CS temporarily due to worsening of disease activity: Two
[7]; three patients
  patients who achieved CR at Week 13: 25%
[8]
  disease symptoms and outcomes: improved disease symptoms and outcomes
[9]
  Efficacy across subgroups: 43-64%
  additional patients who achieved CR at Week 13 without CS use: four
  patients who achieved CDA at or prior to the Week 5 visit without the use of CS: Three
  patients who did not require dose escalation to achieve response: 90%
  patients who needed dose escalation beyond the standard 400 mg bid: three
[9]; 400 mg BID (up to 600 mg BID), 2 weeks / study day 15, n = 26
  patients who achieved control of disease activity (CDA): 27%
[9]; 400 mg BID subgroup, 12 of 23
  CDA with low dose CS by Day 29, dosing subgroup: 52%
[9]; 500 mg BID subgroup, 1 of 1
  CDA with low dose CS by Day 29, dosing subgroup: 100%
[9]; 600 mg BID subgroup, 1 of 2
  CDA with low dose CS by Day 29, dosing subgroup: 50%
[9]; 4 weeks / Day 29, CS <= 0.5 mg/kg/day, n = 26 (primary endpoint), 0.5 mg/kg/day
  patients who achieved control of disease activity (CDA) with low dose CS: 54% and > 50%
[9]; 6 of 8
  CDA rate in newly diagnosed patients: 75%
[9]; 6 of 26
  patients who achieved CR during the study period: 23%
[9]; 12 weeks (treatment period), patients that completed the study
  patients who achieved complete remission (CR): 16.7% and 17%
[9]; 12 weeks / Day 85
  patients who achieved control of disease activity (CDA) with low dose CS: 73%
[9]; 13 of 18
  CDA rate in relapsing patients: 72%
[9]; 24 weeks (12 weeks on, 12 weeks off treatment; follow-up by Day 141)
  patients who achieved complete remission (CR): 25%
[9]; all of 11 patients with milder disease
  PDAI scores on the Day 85 visit: ≤ 5
[9]; all patients, SD = 10, baseline 14 mg/day (SD = 11)
  Mean CS dose after 12 weeks of treatment: 12 mg/day
[9]; dropped from 14 mg/day at baseline
  mean CS dose at CR: 8 mg/day
[9]; follow-up period
  additional patients who achieved CR on CS <= 0.5 mg/kg/day by Day 141: two
[9]; four patients of 26
  patients who achieved CR on CS doses <= 0.5 mg/kg/day by Day 85: 15%
[9]; in the 12 weeks off PRN1008
  patients who needed CS rescue > 0.5 mg/kg: 4 patients
[9]; over 12 weeks of treatment
  median reduction in PDAI scores: 70%
[9]; patients who achieved CR, range 1-20 mg
  mean CS dose at the time CR was achieved: 8 mg
[9]; post-treatment
  median CR duration: 96 days
[9]; post-treatment, range 0.7-20 mg/day
  mean CS dose during CR duration: 8 mg/day
[9]; slightly higher than overall mITT population
  CDA rate in patients with a positive anti-dsg 3 antibody: 64%
[10]; 400 mg QD only, 2 weeks, n = 14 (FIG. 6)
  patients who achieved CDA: 29%
[10]; 400 mg QD only, 4 weeks, n = 14 (FIG. 6)
  patients who achieved CDA: 43%
[10]; 400 mg QD only, 4 weeks, n = 14 (FIG. 8B, 80% CI)
  patients who achieved CDA: 50%
[10]; 400 mg QD only, 12 weeks, n = 14 (FIG. 6)
  patients who achieved CDA: 50%
[10]; 400 mg QD only, 12 weeks, n = 14 (FIG. 8B, 80% CI)
  patients who achieved CDA: 50%
[10]; 400 mg QD only, 12 weeks, n = 14 (FIG. 9B)
  patients who achieved complete remission (CR): 7%
[10]; 400 mg QD only, 24 weeks, n = 14 (FIG. 9B)
  patients who achieved complete remission (CR): 7%
[10]; 400 mg QD only, 28 weeks (24 on, 4 off treatment), n = 14 (FIG. 9B)
  patients who achieved complete remission (CR): 7%
[10]; 400 mg QD with dose adjustment up to 600 mg BID, 2 weeks, n = 15 (FIG. 7)
  patients who achieved CDA: 27%
[10]; 400 mg QD with dose adjustment up to 600 mg BID, 4 weeks, n = 15 (FIG. 7)
  patients who achieved CDA: 53%
[10]; 400 mg QD with dose adjustment up to 600 mg BID, 12 weeks, n = 15 (FIG. 7)
  patients who achieved CDA: 80%
[10]; 24 weeks of PRN1008 treatment
  daily corticosteroid usage: decreased
[10]; at 12 weeks
  Median PDAI: 4
[10]; at 24 weeks, 10 out of 15
  patients having reached a PDAI of 1 or 0: 67%
[10]; at 24 weeks
  Median PDAI: 1
[10]; by 24 weeks
  reduction in mean PDAI activity score: 79%
  reduction in median PDAI activity score: 94%
[10]; dose adjustment up to 600 mg BID, 4 weeks, n = 15 (FIG. 8A, 80% CI)
  patients who achieved CDA: 60%
[10]; dose adjustment up to 600 mg BID, 12 weeks (FIG. 9A)
  patients who achieved complete remission (CR): 13%
[10]; dose adjustment up to 600 mg BID, 12 weeks, n = 15 (FIG. 8A, 80% CI)
  patients who achieved CDA: 87%
[10]; dose adjustment up to 600 mg BID, 24 weeks (FIG. 9A)
  patients who achieved complete remission (CR): 33%
[10]; dose adjustment up to 600 mg BID, 28 weeks (24 on, 4 off treatment) (FIG. 9A)
  patients who achieved complete remission (CR): 40%
[11]
  median reduction of autoantibody levels: up to 65%
[12]; Part A
  AEs commonly associated with marketed BTKi (major hemorrhage, atrial fibrillation, thrombocytopenia/neutropenia): no cases
  AEs related to the study drug: headache: 11%
  AEs related to the study drug: nausea: 15%
  AEs related to the study drug: upper abdominal pain: 11%
  patients who experienced Serious AEs (SAE): Three
[12]; Part A Safety Population, 20 of 27
  patients who experienced a TEAE: 74%
[12]; Part A, Day 26, patient with type II diabetes
  only treatment related SAE: cellulitis (Grade 3)
[12]; Part A, number of AEs out of all AEs
  AEs that were Grade 1 or 2: 94/97
[13]
  discontinuation due to an adverse event: no participants discontinued treatment due to an adverse event
  most commonly reported adverse events: gastrointestinal adverse events, including nausea/vomiting and diarrhea
  serious adverse events or deaths: No serious adverse events or deaths were reported

Reference: US20230158033A1, “Method of Treating Pemphigus by Administering (R)-2-[3-[4-Amino-3-(2-Fluoro-4-Phenoxy-Phenyl)Pyrazolo[3,4-D]Pyrimidin-1-YL]Piperidine-1-Carbonyl]-4-Methyl-4-[4-(Oxetan-3-YL)Piperazin-1-YL]Pent-2-Enenitrile” (Principia Biopharma Inc., priority 2019, published 2023)
